From US10316056B2, “Chemical compounds and use thereof for improving muscular quality” (BIOPHYTIS, priority 2014, dated 2019) come the findings set out here.

Molecules are shown by their SMILES.

The test system of data set [1] is myostatin gene expression in C2C12 cells. Briefly: Inhibition of myostatin expression in C2C12 cells (qPCR). The class given is cell-based. Conditions: Mus musculus, percentage myostatin gene expression in cells in contact with the compounds related to control cells, C2C12, 6 h. A digest of the protocol:
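C2C12 myoblasts differentiated to myotubes for 5 days in 2% serum, then treated 6 h with compounds in serum-free, low-glucose (1 g/l) DMEM; IGF-1 100 ng/ml as reference. Myostatin mRNA quantified by RT-qPCR, expressed relative to untreated control as R=2^-ΔΔCt.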
Background: Real-time PCR tracks product formation cycle by cycle.

Data set [2] deals with S6 kinase (S6K1) phosphorylation in C2C12 cells. Briefly: Phosphorylation of the S6 kinase in C2C12 cells (ELISA pS6K T389), protein synthesis. The class given is cell-based, mouse. Conditions: Mus musculus, C2C12, 2 h. The protocol: After several experiments in which the C2C12 cells differentiated into myotubes were incubated in the presence of IGF-1 or 20E for 2 h 30 or 6 h, two screening tests were developed. Thus, the phosphorylation of the S6 protein kinase and the expression of the myostatin gene were studied in order to determine their modulation by a growth hormone or an ecdysone and to characterize these modulations from a statistical point of view.
The C2C12 myoblast cells (ATCC CRL-1772) are seeded into 6-well plates at a density of 170 000 cells per well and cultured in a DMEM medium containing glucose in a proportion of 4.5 g/l and supplemented with fetal calf serum (10%) and with antibiotics (penicillin and streptomycin). Forty-eight hours later, the myoblasts are induced to differentiate by partial serum depletion (2% instead of 10%) for 5 days. The cells are then placed in a medium which is glucose-depleted (DMEM containing 1 g/l of glucose) and serum-free in the presence of the test molecules or of the references (100 ng/ml IGF-1 or 10 μM 20E) for 2 h. At the end of the experiment, the cells are lysed in a commercial lysis buffer (Invitrogen FNN0011) supplemented with a commercial mixture of anti-proteases (Roche 05056489001). After centrifugation, the cytoplasmic fraction containing the soluble proteins is kept and the protein concentration is determined using a commercial kit (Biorad 500-0114), the principle of which is composed of assaying by the Lowry method. The assaying of the S6 kinase phosphorylation is carried out using a commercial ELISA (Enzyme Linked ImmunoSorbent Assay) kit (Cell signaling 7063). Briefly, 50 μg of protein lysate are deposited in the wells of a 96-well microplate and incubated overnight at 4° C. with the solution of antigen specific for the pS6 kinase threonine 389 antibody. The binding of the antigen to the bottom of the wells is done electrostatically. The solution of antibody to be assayed (pS6K T389) is then incubated at 37° C. in the wells for 2 hours. The antibodies bind specifically to the antigen. The wells are then washed with washing buffer in order to remove the antigen-specific primary antibodies to be assayed which are in excess. The third step consists in binding the detection antibody. The solution of detection antibodies is incubated at 37° C. in the wells for 1 hour. The wells are then washed in order to remove the excess detection antibodies. It should be noted that the detection antibodies are coupled to an enzyme which, in the presence of its substrate, converts it into a reaction product that can be detected and measured by virtue of the appearance of a coloration. […] The appearance of a blue coloration in the substrate indicates the presence of the antibody to be assayed. In order to prevent any saturation phenomenon, a stop solution (generally containing […]) is added and brings about a change in coloration, which goes from blue to yellow. The strength thereof is proportional to the amount of enzyme present and thus to the concentration of antibody sought. The strength of the signal is measured using spectrophotometry at a wavelength of 450 nm.
On the technique in general: In an ELISA, binding on a coated surface is turned into a signal by an enzyme label.

For data set [3] the following is noted: rat, in vivo, po; for Cexp (coefficient of exposure): male, Wistar.
Experimental: (§1) The pharmacokinetics of the compounds were evaluated orally using male Wistar rats (Charles River). […] The novel compounds according to the invention were administered at a dose of 10 mg/kg of body weight in the form of a mixture of 4 to 6 products. After administration, the blood was sampled from the tail at t=0.25 h, 0.5 h, 1 h, 3 h, 6 h and 8 h. The blood samples were centrifuged and the plasmas removed.
Data set [4] in a line: in vivo. Conditions: male, Wistar, rat, po, 10 mg/kg.
Experimental: as §1

One may read the AUC as concentration integrated over time. The Cmax is the maximum level reached in the sampled fluid or tissue. As usually defined, the Tmax is the time from dosing to the highest level. As for `CC(NCC1CCCO1)[C@H]1CC[C@@]2(O)C3=CC(=O)[C@@H]4C[C@@H](O)[C@@H](O)C[C@]4(C)C3CC[C@]12C` (stereo partly drawn) [Compound 46, (2S,3R,5R,10R,13R,14S,17S)-2,3,14-trihydroxy-10,13-dimethyl-17-[1-(tetrahydrofuran-2-ylmethylamino)ethyl]-2,3,4,5,9,11,12,15,16,17-decahydro-1H-cyclopenta[a]phenanthren-6-one], in data set [1], the mrna remaining at 10 µM is under 70%. The activity at 10 µM in data set [2] (10 μM, read-out: Protein synthesis (percentage increase in S6K phosphorylation in muscle cells)) was 110 to 129%. Further, the activity in data set [2] (test compounds and 20E reference (10 μM), read-out: S6K1 phosphorylation level) was about 120%. In addition, in data set [3], the “Cexp (coefficient of exposure)” value came to 2.6 and the “plasma exposure compared with 20E” value is reported as “better plasma exposure”. Further, in data set [4], the AUC was 202 ng·h/mL, the Cmax was 40 ng/mL and the Tmax amounted to 15 min.
In turn, `C/C(=N/OCCN1CCOCC1)[C@H]1CC[C@@]2(O)C3=CC(=O)[C@@H]4C[C@@H](O)[C@@H](O)C[C@]4(C)C3CC[C@]12C` (stereo partly drawn) [Compound 31, (2S,3R,5R,10R,13R,14S,17S)-2,3,14-trihydroxy-10,13-dimethyl-17-(C-methyl-N-(2-morpholinoethoxy)carbonimidoyl)-2,3,4,5,9,11,12,15,16,17-decahydro-1H-cyclopenta[a]phenanthren-6-one] returned a mrna remaining at 10 µM in data set [1] of under 70%. Also, in data set [3], the “Cexp (coefficient of exposure)” value was 3.7 and the “plasma exposure compared with 20E” value is listed as “better plasma exposure”. In addition, in data set [4], the AUC was found to be 281 ng·h/mL, the Cmax was 105 ng/mL and the time of peak concentration (Tmax) was 15 min.
